Experimental data published in PubChem BioAssay (NCI).
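Briefly, cells in 96-well plates were exposed to five compound concentrations for 48 h, and endpoints were estimated by linear interpolation. TGI is the concentration that stops growth completely.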

Key:
Assay in all cases: growth of human tumour cells (NCI), 48 h
[1] = test system: OVCAR-5 ovarian
[2] = test system: SW-620 colon
[3] = test system: OVCAR-3 ovarian
[4] = test system: U251 CNS
[5] = test system: SF-295 CNS
[6] = test system: NCI-H522 lung
[7] = test system: EKVX NSCLC
[8] = test system: MDA-MB-231 breast
[9] = test system: HCT-15 colon
[10] = test system: DLD-1 colon
[11] = test system: MALME-3M melanoma
[12] = test system: NCI-H23 lung
[13] = test system: DU-145 prostate
[14] = test system: UACC-257 melanoma
[15] = test system: HT29 colon
[16] = test system: SNB-75 CNS
[17] = test system: CCRF-CEM leukemia
[18] = test system: OVCAR-8 ovarian
[19] = test system: UO-31 renal
[20] = test system: SN12C renal
[21] = test system: HOP-92 NSCLC
[22] = test system: PC-3 prostate
[23] = test system: SF-268 CNS
[24] = test system: HOP-62 NSCLC
[25] = test system: IGROV1 ovarian
[26] = test system: LXFL 529 NSCLC
[27] = test system: 786-0 renal
[28] = test system: SF-539 CNS
[29] = test system: NCI-H460 lung
[30] = test system: OVCAR-4 ovarian
[31] = test system: SK-OV-3 ovarian
[32] = test system: M14 melanoma
[33] = test system: MDA-MB-435
[34] = test system: M19-MEL melanoma
[35] = test system: SNB-19 CNS
[36] = test system: HCC-2998 colon
[37] = test system: SK-MEL-28 melanoma
[38] = test system: MCF7 breast
[39] = test system: MOLT-4 leukemia
[40] = test system: RPMI-8226 leukemia
[41] = test system: UACC-62 melanoma
[42] = test system: HL-60(TB) leukemia
[43] = test system: HS 578T breast
[44] = test system: TK-10 renal
[45] = test system: A498 renal
[46] = test system: NCI-H226 lung
[47] = test system: NCI/ADR-RES ovarian
[48] = test system: COLO 205 colon
[49] = test system: SK-MEL-5 melanoma
[50] = test system: MDA-N
[51] = test system: ACHN renal
[52] = test system: K-562 leukemia
[53] = test system: KM12 colon
[54] = test system: SR leukemia
[55] = test system: HOP-18 NSCLC
[56] = test system: HCT-116 colon
[57] = test system: A549 NSCLC
[58] = test system: BT-549 breast
[59] = test system: DMS 114 small cell lung
[60] = test system: CAKI-1 renal
[61] = test system: RXF 393 renal
[62] = test system: SNB-78 CNS
[63] = test system: KM20L2 colon
[64] = test system: LOX IMVI melanoma
[65] = test system: T-47D breast
[66] = test system: SK-MEL-2 melanoma
[67] = test system: DMS 273 small cell lung

SMILES: COc1ccc(/C=N/N/C(O)=c2/sc(=C(C#N)C#N)n(-c3ccccc3)c2=N)cc1
- TGI [1]: > 100 µM
- TGI [2]: > 100 µM
- TGI [3]: > 100 µM
- TGI [4]: > 100 µM
- TGI [5]: > 70.5 µM
- TGI [6]: > 100 µM
- TGI [7]: > 100 µM
- TGI [8]: > 100 µM
- TGI [9]: > 100 µM
- TGI [10]: > 100 µM
- TGI [11]: > 100 µM
- TGI [12]: > 100 µM
- TGI [13]: > 100 µM
- TGI [14]: > 100 µM
- TGI [15]: > 100 µM
- TGI [16]: 38.3 µM
- TGI [17]: > 100 µM
- TGI [18]: > 100 µM
- TGI [19]: > 100 µM
- TGI [20]: > 100 µM
- TGI [21]: > 70.8 µM
- TGI [22]: > 100 µM
- TGI [23]: > 100 µM
- TGI [24]: > 94 µM
- TGI [25]: > 100 µM
- TGI [26]: > 100 µM
- TGI [27]: > 100 µM
- TGI [28]: > 88.6 µM
- TGI [29]: > 100 µM
- TGI [30]: > 100 µM
- TGI [31]: > 100 µM
- TGI [32]: > 100 µM
- TGI [33]: > 100 µM
- TGI [34]: > 100 µM
- TGI [35]: > 100 µM
- TGI [36]: > 100 µM
- TGI [37]: > 100 µM
- TGI [38]: > 100 µM
- TGI [39]: > 100 µM
- TGI [40]: > 100 µM
- TGI [41]: > 100 µM
- TGI [42]: > 100 µM
- TGI [43]: > 100 µM
- TGI [44]: > 100 µM
- TGI [45]: > 100 µM
- TGI [46]: > 100 µM
- TGI [47]: > 100 µM
- TGI [48]: > 100 µM
- TGI [49]: > 100 µM
- TGI [50]: > 100 µM
- TGI [51]: > 100 µM
- TGI [52]: > 100 µM
- TGI [53]: > 100 µM
- TGI [54]: > 100 µM
- TGI [55]: > 100 µM
- TGI [56]: > 100 µM
- TGI [57]: > 100 µM
- TGI [58]: > 100 µM

SMILES: Nc1ncnc2c1ncn2C1CC(O)C(CO)O1 (configuration not stated)
- TGI [1]: > 100 µM
- TGI [2]: > 100 µM
- TGI [3]: > 100 µM
- TGI [4]: > 100 µM
- TGI [5]: > 100 µM
- TGI [6]: > 100 µM
- TGI [7]: > 100 µM
- TGI [59]: > 100 µM
- TGI [8]: > 100 µM
- TGI [60]: > 100 µM
- TGI [9]: > 100 µM
- TGI [10]: > 100 µM
- TGI [11]: > 100 µM
- TGI [12]: > 100 µM
- TGI [13]: > 100 µM
- TGI [14]: > 100 µM
- TGI [15]: > 100 µM
- TGI [16]: > 100 µM
- TGI [61]: > 100 µM
- TGI [17]: > 100 µM
- TGI [18]: > 100 µM
- TGI [19]: > 100 µM
- TGI [20]: > 100 µM
- TGI [21]: > 100 µM
- TGI [22]: > 100 µM
- TGI [23]: > 100 µM
- TGI [24]: > 100 µM
- TGI [62]: > 100 µM
- TGI [25]: > 100 µM
- TGI [26]: > 100 µM
- TGI [27]: > 100 µM
- TGI [63]: > 100 µM
- TGI [28]: > 100 µM
- TGI [29]: > 100 µM
- TGI [30]: > 100 µM
- TGI [31]: > 100 µM
- TGI [32]: > 100 µM
- TGI [33]: > 100 µM
- TGI [34]: > 100 µM
- TGI [35]: > 100 µM
- TGI [36]: > 100 µM
- TGI [64]: > 100 µM
- TGI [37]: > 100 µM
- TGI [38]: > 100 µM
- TGI [39]: > 100 µM
- TGI [40]: > 100 µM
- TGI [41]: > 100 µM
- TGI [42]: > 100 µM
- TGI [44]: > 100 µM
- TGI [45]: > 100 µM
- TGI [46]: > 100 µM
- TGI [65]: > 100 µM
- TGI [66]: > 100 µM
- TGI [47]: > 100 µM
- TGI [48]: > 100 µM
- TGI [49]: > 100 µM
- TGI [50]: > 100 µM
- TGI [51]: > 100 µM
- TGI [52]: > 100 µM
- TGI [53]: > 100 µM
- TGI [54]: > 100 µM
- TGI [67]: > 100 µM
- TGI [56]: > 100 µM
- TGI [57]: > 100 µM
